Where a name gives a salt, the structure may show the parent alone.

For the assay, the target named is rat TRPV1 (Rattus norvegicus (Rat), UniProt O35433). As to conditions: read-out: Rat IC50.
Chain of rat TRPV1 (O35433 whole entry): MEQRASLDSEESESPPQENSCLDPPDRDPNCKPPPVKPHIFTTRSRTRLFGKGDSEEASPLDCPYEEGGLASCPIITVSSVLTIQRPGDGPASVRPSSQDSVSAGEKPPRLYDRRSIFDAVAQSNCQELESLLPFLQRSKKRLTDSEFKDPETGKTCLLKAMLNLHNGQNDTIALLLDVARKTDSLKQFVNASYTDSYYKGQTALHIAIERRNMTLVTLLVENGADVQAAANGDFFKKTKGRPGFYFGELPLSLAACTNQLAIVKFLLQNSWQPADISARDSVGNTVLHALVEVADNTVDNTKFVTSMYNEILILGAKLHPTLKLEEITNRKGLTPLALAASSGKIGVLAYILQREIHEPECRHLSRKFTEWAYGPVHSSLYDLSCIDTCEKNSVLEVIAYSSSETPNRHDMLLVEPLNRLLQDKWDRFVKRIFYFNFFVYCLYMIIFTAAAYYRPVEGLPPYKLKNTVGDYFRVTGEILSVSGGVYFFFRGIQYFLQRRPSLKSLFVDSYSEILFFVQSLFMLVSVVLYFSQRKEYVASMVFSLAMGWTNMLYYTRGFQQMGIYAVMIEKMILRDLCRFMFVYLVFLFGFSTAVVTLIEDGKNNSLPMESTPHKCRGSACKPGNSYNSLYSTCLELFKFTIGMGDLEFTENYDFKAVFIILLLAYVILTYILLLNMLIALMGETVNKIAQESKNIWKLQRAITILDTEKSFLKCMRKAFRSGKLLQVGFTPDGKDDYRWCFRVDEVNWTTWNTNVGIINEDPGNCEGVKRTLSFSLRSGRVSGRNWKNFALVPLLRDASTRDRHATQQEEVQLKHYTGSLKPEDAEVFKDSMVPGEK
Method: Biological Testing: Functional Assay: Block of Capsaicin-Induced Ca^2+ Influx A. Human Assay
Cells were passaged frequently, every 3-5 days, to avoid overgrowth, depletion of essential medium components, or acidic medium exposure. Cells were passaged using a brief wash in 0.05% trypsin with 1 mM EDTA, followed by dissociation in divalent-free phosphate-buffered saline (Hyclone #SH30028.02). […] The assay buffer was composed of 130 mM NaCl, 2 mM KCl, 2 mM MgCl2, 10 mM HEPES, 5 mM glucose, and either 2 mM or 20 μM CaCl2. On the day of the experiment, the culture medium was replaced with 2 mM calcium assay buffer using an automated plate washer (ELx405; Biotek, VT). […] After loading the cells, the dye solution was replaced with 50 μL/well of 20 μM calcium assay buffer using the ELx405 plate washer. Test compounds (50 μL/well) were added to the plate and incubated for 30 min. […] The IC50 values were determined. […] The contents of the wells were mixed 3 times (40 μL mix volume) immediately after the additions were made. Concentration dependence of block was determined by exposing each well of cells in duplicate rows of a 96 well plate to a serial dilution of test compound. The concentration series usually started at 10 μM with a three-fold serial decrement in concentration. The magnitude of the capsaicin response was determined by measuring the change in fluo3 fluorescence before and 100 seconds after the addition of the agonist. Data were analyzed using a non-linear regression program (Origin; OriginLab, MA). IC50 values shown are the average (mean) of the results obtained.
The assay was performed as described above, using HEK293 cells transfected with rat TRPV1 (rTRPV1/HEK293). […] IC50 values shown are the average (mean) of the results obtained.
Regarding `CN(C)c1nc2c(c(Nc3ccc(C(F)(F)F)nc3)n1)CCN(c1ncccc1C(F)(F)F)CC2` [Example 43B, N^2,N^2-Dimethyl-N^4-(6-trifluoromethyl-pyridin-3-yl)-7-(3-trifluoro-methyl-pyridin-2-yl)-6,7,8,9-tetrahydro-5H-pyrimido[4,5-d]azepine-2,4-diamine trifluoroacetic acid salt], the IC50 is 390 nM.

Consider `O=C(O)C1CCN(c2nc3c(c(Nc4ccc(C(F)(F)F)cc4)n2)CCN(c2ncccc2C(F)(F)F)CC3)CC1` [Example 57B, 1-[4-(4-Trifluoromethyl-phenylamino)-7-(3-trifluoromethyl-pyridin-2-yl)-6,7,8,9-tetrahydro-5H-pyrimido[4,5-d]azepin-2-yl]-piperidine-4-carboxylic acid trifluoroacetic acid salt], for which the concentration for half-maximal inhibition (IC50) amounted to 5500 nM.

`FC(F)(F)c1ccc(Nc2nc(NCCN3CCCCC3)nc3c2CCN(c2ncccc2C(F)(F)F)CC3)cc1` [Example 58B, N^2-(2-Piperidin-1-yl-ethyl)-N^4-(4-trifluoromethyl-phenyl)-7-(3-trifluoro-methyl-pyridin-2-yl)-6,7,8,9-tetrahydro-5H-pyrimido[4,5-d]azepine-2,4-diamine trifluoroacetic acid salt]: the IC50 was 1500 nM.

On to `FC(F)(F)c1ccc(Nc2nc(NC3CCOCC3)nc3c2CCN(c2ncccc2C(F)(F)F)CC3)cc1` [Example 61B, N^2-(Tetrahydro-pyran-4-yl)-N^4-(4-trifluoromethyl-phenyl)-7-(3-trifluoro-methyl-pyridin-2-yl)-6,7,8,9-tetrahydro-5H-pyrimido[4,5-d]azepine-2,4-diamine trifluoroacetic acid salt], for which the IC50 came out at 230 nM.

For `CN(C)c1nc2c(c(NCc3ccc(Cl)c(Cl)c3)n1)CCN(c1ncccc1C(F)(F)F)CC2` [Example 73B, N^4-(3,4-Dichloro-benzyl)-N^2,N^2-dimethyl-7-(3-trifluoromethyl-pyridin-2-yl)-6,7,8,9-tetrahydro-5H-pyrimido[4,5-d]azepine-2,4-diamine trifluoroacetic acid salt], the IC50 amounted to 6700 nM.

The values above are taken from patent publication US9738649B2 (priority 2006, dated 2017).
